Reference: a melting point compilation (Tetko et al.)

With Cc1cc(C)nc(NN)n1 as the compound, how does the melting point read?
Its melting point is 166 to 167 °C.

Which melting point does the source give for C#CC1(OC(C)=O)CCC2C3CCC4=CC(=O)CCC4C3CCC21C (configuration not stated) here?
The melting point was 162 °C.

For ONc1ccccc1, which melting point is on record?
Its melting point is 83.5 °C.

Which melting point does the source give for O=C(Nc1ccc(F)cc1F)c1cccnc1Oc1cccc(C(F)(F)F)c1 here?
The melting point was 160 °C.

Which melting point does the source give for COc1ccc2cc(-c3ccn[nH]3)ccc2c1 here?
Its melting point is 201 °C.

For CCNC(=O)COC(=O)c1ccccc1, which melting point is on record?
The melting point was 106 °C.

Which melting point does the source give for S=c1cn[nH]c(=S)[nH]1 here?
Its melting point is 209 to 210 °C.

For CCOC(=O)C(C#N)=Cc1ccc(-c2ccccc2Br)o1, which melting point is on record?
Its melting point is 123 to 124 °C.

For NC(=S)c1ccc2c(c1)OCO2, which melting point is on record?
Its melting point is 183 to 186 °C.

Which melting point does the source give for Sc1ccncc1 here?
Its melting point is 182 to 189 °C.

With FC(Cl)=C(F)Cl as the compound, how does the melting point read?
The melting point was -130 °C.

Which melting point does the source give for O=[N+]([O-])c1ccc(/C=C/c2ccccc2O)c([N+](=O)[O-])c1 here?
The melting point was 186 °C.

Which melting point does the source give for COC1=CC=C2C3Cc4ccc(OC)c5c4C2(CCN3C)C1O5 (configuration not stated) here?
Its melting point is 193 °C.

Which melting point does the source give for COC(=O)c1cc(C)c(S(=O)(=O)Cl)s1 here?
Its melting point is 40 to 41 °C.

Which melting point does the source give for CC(=O)c1ccc(Cl)s1 here?
The melting point was 49 °C.

For O=S1(=O)OC(c2cc(Cl)c(O)c(Br)c2)(c2cc(Cl)c(O)c(Br)c2)c2ccccc21, which melting point is on record?
The melting point was 230 °C.

For N=C1N=C2CCC(c3ccccc3)=NN2CN1, which melting point is on record?
Its melting point is 240 to 242 °C.

With Cc1ccc(O)c(CO)n1 as the compound, how does the melting point read?
Its melting point is 157 to 159 °C.

With NSCc1cc2ccccc2oc1=O as the compound, how does the melting point read?
Its melting point is 255 °C.

Which melting point does the source give for FC(F)(F)c1cccc(Br)n1 here?
The melting point was 49.5 °C.

For O=C(c1ccc(F)cc1)N1CCCCC1, which melting point is on record?
Its melting point is 60 to 62 °C.

Which melting point does the source give for O=C(Cl)c1sccc1Cl here?
The melting point was 45 to 46 °C.

With CC(=O)N=C1C=CC(=O)C=C1 as the compound, how does the melting point read?
Its melting point is 74.5 °C.

For Cc1nc(-c2ccc(Br)s2)cs1, which melting point is on record?
Its melting point is 78 to 79 °C.

With Cc1ccc(Cl)c([N+](=O)[O-])c1 as the compound, how does the melting point read?
The melting point was 7 °C.

For CCOC(=O)c1sc(-c2ccc(C(F)(F)F)cc2)nc1C, which melting point is on record?
The melting point was 87 to 89 °C.

With ON=C1CCCc2c1nc(-c1ccccc1)n2O as the compound, how does the melting point read?
Its melting point is 270 to 272 °C.

For CN(C(=O)CN(CCO)CC(=O)N(C)C(C)(C)Cc1ccccc1)C(C)(C)Cc1ccccc1, which melting point is on record?
The melting point was 104 °C.

Which melting point does the source give for COC(=O)c1ccc(OC)c(OC)c1Cl here?
Its melting point is 46 to 48 °C.

Which melting point does the source give for FC(F)(F)c1cc(P(c2cc(C(F)(F)F)cc(C(F)(F)F)c2)c2cc(C(F)(F)F)cc(C(F)(F)F)c2)cc(C(F)(F)F)c1 here?
Its melting point is 100 °C.

With CCOC(=O)C(Cl)(Cc1cc(CC(Cl)(C(=O)OCC)C(=O)OCC)c([N+](=O)[O-])cc1[N+](=O)[O-])C(=O)OCC as the compound, how does the melting point read?
Its melting point is 146 °C.

For O=[N+]([O-])c1cc(C(F)(F)F)cc([N+](=O)[O-])c1O, which melting point is on record?
The melting point was 47 to 48 °C.

Which melting point does the source give for CC(C)Nc1nc(N)nc(Cl)n1 here?
Its melting point is 133 °C.

Which melting point does the source give for CC(=O)CC(c1ccc([N+](=O)[O-])cc1)c1c(O)oc2ccccc2c1=O (configuration not stated) here?
The melting point was 197 °C.

Which melting point does the source give for CCOC(=O)C1=C(C)NC(=O)NC1c1ccc2c(c1)OCO2 (configuration not stated) here?
The melting point was 189 °C.

With CCCCCCCCCOC(=O)c1ccc(N)cc1 as the compound, how does the melting point read?
The melting point was 69 °C.

With O=C(C=Cc1ccc([N+](=O)[O-])cc1)c1ccccc1 as the compound, how does the melting point read?
The melting point was 164 °C.

With COc1cc2c(cc1O)[C@H](C)N(C)CC2 as the compound, how does the melting point read?
Its melting point is 182 °C.

Which melting point does the source give for Oc1n[nH]c2nc3ccccc3nc12 here?
Its melting point is 304 to 305 °C.

For Nc1c(C(=O)O)ccc2c1C(=O)c1ccccc1C2=O, which melting point is on record?
Its melting point is 296 °C.

For O=[N+]([O-])c1ccc(NCc2ccccc2)c2nonc12, which melting point is on record?
The melting point was 206 to 209 °C.

With CC(C)(C)OC(=O)NCc1ccc(CO)cc1 as the compound, how does the melting point read?
The melting point was 98 to 99 °C.

For O=C(O)c1ccc(-c2ccsc2)cc1, which melting point is on record?
The melting point was 282 to 283 °C.

Which melting point does the source give for CC(C)(C)OC(=O)c1cc2cc3c4c(c2oc1=O)CCCN4CCC3 here?
The melting point was 171 °C.

Which melting point does the source give for CCOC(=O)c1c(NC(=O)C(Cl)Cl)sc2c1CCCC2 here?
The melting point was 120 to 122 °C.

Which melting point does the source give for CC(Cl)C(=O)Cl (configuration not stated) here?
The melting point was -71 °C.

Which melting point does the source give for O=C(O)Cc1noc2ccccc12 here?
The melting point was 123 to 125 °C.

With CCOc1ccc(N=Nc2ccc(OCC)cc2)cc1 as the compound, how does the melting point read?
The melting point was 162 °C.

For COC(OC)(C(=O)c1ccccc1)c1ccccc1, which melting point is on record?
The melting point was 66 °C.

With Nc1ccc2nccnc2c1 as the compound, how does the melting point read?
The melting point was 159 °C.

Which melting point does the source give for Cc1ccc([Si](C)(c2ccc(C)cc2)c2ccc(C)cc2)cc1 here?
The melting point was 92 °C.

With CC12CCC(O)CC1CC1(OCCO1)C1C2CCC2(C)C1CCC21OCCO1 (configuration not stated) as the compound, how does the melting point read?
Its melting point is 99 to 103 °C.

With Cc1ccc(Cc2c(N)n[nH]c2N)cc1 as the compound, how does the melting point read?
The melting point was 173 to 175 °C.

For COc1ccc(-c2csc(/C(C#N)=C/c3ccccc3Cl)n2)cc1, which melting point is on record?
The melting point was 222 °C.

With Cc1ccc(O)c(F)c1F as the compound, how does the melting point read?
Its melting point is 37 °C.

With Cc1noc(-c2ccc(C(=O)O)cc2)n1 as the compound, how does the melting point read?
Its melting point is 267 to 269 °C.

With CN(C)CC(=O)N1c2ccccc2Sc2ccccc21 as the compound, how does the melting point read?
The melting point was 144 °C.

With CCOC(=O)c1cn[nH]c1NC(=O)Nc1ccc(Cl)cc1 as the compound, how does the melting point read?
The melting point was 260 to 261 °C.

Which melting point does the source give for CC(C)(C)c1cc2c(O)c(c1)Cc1cc(C(C)(C)C)cc(c1O)Cc1cc(C(C)(C)C)cc(c1O)Cc1cc(C(C)(C)C)cc(c1O)Cc1cc(C(C)(C)C)cc(c1O)Cc1cc(C(C)(C)C)cc(c1O)C2 here?
The melting point was 300 °C.

With Nc1cnc2ccccc2c1N as the compound, how does the melting point read?
Its melting point is 183 to 185 °C.

For CC(=O)Oc1cc(C)c(OC(C)=O)c2ccccc12, which melting point is on record?
The melting point was 113 °C.

With CCOC(=O)C(O)c1ccccc1 (racemic) as the compound, how does the melting point read?
The melting point was 37 °C.
